From the supplement of paper PMC10307832

Legend:
Assay in all cases: relative viability (nuclei count vs DMSO), 5 days (fraction); higher = more cells survive
[1] = compound: C1=CC2=C(C=C(C(=C2N=C1)O)N=NC3=CC4=C(C=C3)C=C(C=C4)S(=O)(=O)O)S(=O)(=O)O + CC(=O)Nc1cccc(-n2c(=O)n(C3CC3)c(=O)c3c(Nc4ccc(I)cc4F)n(C)c(=O)c(C)c32)c1 [Trametinib] (partner 0.02 µM)
Outline: (§1)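 The day after seeding in 1536-well plates, lung cancer cell lines were treated by pin tool with a single drug, or with a fixed anchor-drug dose together with five library-drug doses (not always all listed) in √10 steps. After 5 days, a combined fix-and-stain solution (final 0.05% Triton X-100, 1% formaldehyde, 1 ug/ml Hoechst) was added. Nuclei counted on 4× images gave relative viability as treated counts over vehicle counts, reported as the median of duplicate plates.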

AT-7519 + Vorinostat = compound: O=C(NC1CCNCC1)c1n[nH]cc1NC(=O)c1c(Cl)cccc1Cl [AT-7519] + O=C(CCCCCCC(=O)Nc1ccccc1)NO [Vorinostat] (partner 1 µM)
Outline: as §1

[2] = compound: C1=CC2=C(C=C(C(=C2N=C1)O)N=NC3=CC4=C(C=C3)C=C(C=C4)S(=O)(=O)O)S(=O)(=O)O + Cc1nc(NC(=O)N2CCC[C@H]2C(N)=O)sc1-c1ccnc(C(C)(C)C(F)(F)F)c1 [Alpelisib] (partner 2 µM)
Outline: as §1

[3] = compound: C1=CC2=C(C=C(C(=C2N=C1)O)N=NC3=CC4=C(C=C3)C=C(C=C4)S(=O)(=O)O)S(=O)(=O)O + N=C(N)NC(=N)NCCc1ccccc1 [Phenformin] (partner 250 µM)
Outline: as §1

Cell Line	relative viability ([1]; first compound 0.08 µM)	relative viability ([1]; first compound 0.253 µM)	relative viability ([1]; first compound 0.8 µM)	relative viability ([1]; first compound 2.53 µM)	relative viability ([1]; first compound 8 µM)	relative viability (AT-7519 + Vorinostat; first compound 0.01 µM)	relative viability (AT-7519 + Vorinostat; first compound 0.03162 µM)	relative viability (AT-7519 + Vorinostat; first compound 0.3162 µM)	relative viability (AT-7519 + Vorinostat; first compound 1 µM)	relative viability ([2]; first compound 0.08 µM)	relative viability ([2]; first compound 0.253 µM)	relative viability ([2]; first compound 0.8 µM)	relative viability ([2]; first compound 2.53 µM)	relative viability ([2]; first compound 8 µM)	relative viability ([3]; first compound 0.08 µM)	relative viability ([3]; first compound 0.253 µM)	relative viability ([3]; first compound 0.8 µM)	relative viability ([3]; first compound 2.53 µM)	relative viability ([3]; first compound 8 µM)
NCI-H358	0.158	0.128	0.142	0.136	0.144	0.646	0.604	0.5	0.108	0.902	0.927	0.776	0.833	0.354	0.35	0.35	0.339	0.345	0.327
NCI-H441	0.558	0.464	0.435	0.341	0.476	0.838	0.834	0.796	0.693	0.823	0.823		0.736	1.09	0.918	0.761	0.731	0.947	0.821
NCI-H460	0.187	0.0935	0.138	0.141	0.169	0.569	0.619	0.674	0.0847	0.545	0.456	0.511	0.5	0.291	0.609	0.479	0.502	0.486	0.596
NCI-H520	0.784	0.6	0.768	0.625	0.807	0.712	0.793	0.659	0.429	0.907	0.846	0.923	0.869	0.995	0.493	0.496	0.585	0.321	0.727
NCI-H596	0.939	0.751	0.77	0.795	0.681	0.584	0.611	0.471	0.697	0.48	0.454	0.575	0.475	0.482	0.749	0.735	0.697	0.841	0.759
NCI-H647	0.584	0.429	0.426	0.54	0.518	0.568	0.369	0.562	0.244	1.32	1.19	1.11	1.17	0.984	0.668	0.486	0.449	0.534	0.525
NCI-H650	0.947	0.947	0.875	0.948	0.894	0.504	0.459	0.46	0.599	1.25	1.11	1.08	1.08	1.09	0.413	0.42	0.437	0.49	0.309
NCI-H661	0.627	0.532	0.568	0.625	0.613	0.792	0.829	0.867	0.261	0.746	0.467	0.54	0.703	0.967	0.286	0.291	0.269	0.279	0.312
